Test results reported in patent USRE32311E.
In brackets after ≈: the same amount, converted by molar mass.

Experiments:
[1] = test system: Staphylococcus aureus X1.1; test: agar-dilution MIC; format: cell-based
[2] = test system: Staphylococcus aureus V41; test: agar-dilution MIC; format: cell-based; settings: Staphylococcus aureus V41, penicillin-resistant strain
Protocol: (§1) In Table VII activity is measured by the minimal inhibitory concentration (MIC), i.e. the lowest concentration of compound at which growth of the microorganism is inhibited by the test compound.

[3] = test system: Staphylococcus aureus X400; test: agar-dilution MIC; format: cell-based; settings: Staphylococcus aureus X400, methicillin-resistant strain
Protocol: as §1

[4] = test system: Staphylococcus epidermidis EP11; test: agar-dilution MIC; format: cell-based
Protocol: as §1

[5] = test system: Staphylococcus epidermidis EP12; test: agar-dilution MIC; format: cell-based
Protocol: as §1

[6] = test system: Streptococcus pyogenes C203; test: agar-dilution MIC; format: cell-based
Protocol: as §1

[7] = test system: Streptococcus pneumoniae Park I; format: cell-based; settings: agar dilution
Protocol: as §1

[8] = test system: Streptococcus Group D X66; test: agar-dilution MIC; format: cell-based
Protocol: as §1

[9] = test system: Streptococcus Group D 9960; test: agar-dilution MIC; format: cell-based
[10] = test system: Staphylococcus aureus; test: experimental bacterial infection in mice, ED50; format: in vivo; settings: two doses
[11] = test system: Streptococcus pyogenes; test: experimental bacterial infection in mice, ED50; format: in vivo; settings: two doses
[12] = toxicity, LD50 in mice; format: in vivo; settings: administered intravenously

Compound | MIC [1] [µg/mL] | MIC [2] [µg/mL] | MIC [3] [µg/mL] | MIC [4] [µg/mL] | MIC [5] [µg/mL] | MIC [6] [µg/mL] | MIC [7] [µg/mL] | MIC [8] [µg/mL] | MIC [9] [µg/mL] | ED50 Staphylococcus aureus Subcutaneous [10] [mg/kg × 2] | ED50 Streptococcus pyogenes Oral [11] [mg/kg × 2] | LD50 in Mice [12] [mg/kg] | ED50 Streptococcus pyogenes Subcutaneous ([11]; subcutaneous) [mg/kg × 2]
CCCCCCCCCCCC(=O)Nc1cccc(C(=O)N[C@@H](Cc2c[nH]c3ccccc23)C(=O)N[C@H](CC(N)=O)C(=O)N[C@@H](CC(=O)O)C(=O)N[C@@H]2C(=O)NCC(=O)N[C@@H](CCCN)C(=O)N[C@@H](CC(=O)O)C(=O)N[C@H](C)C(=O)N[C@@H](CC(=O)O)C(=O)NCC(=O)N[C@H](CO)C(=O)N[C@@H]([C@H](C)CC(=O)O)C(=O)N[C@@H](CC(=O)c3ccccc3N)C(=O)O[C@@H]2C)c1 [Compound 5] | 0.5 (≈ 0.283 µM) | 0.5 (≈ 0.283 µM) | 1 (≈ 0.566 µM) | 2 (≈ 1.13 µM) | 1 (≈ 0.566 µM) | 0.25 (≈ 0.141 µM) | 0.25 (≈ 0.141 µM) | 4 (≈ 2.26 µM) | 1 (≈ 0.566 µM) | 1.67 | > 200 | 277 | 
CCC(C)CCCCCCC(=O)N[C@@H](Cc1c[nH]c2ccccc12)C(=O)N[C@@H](CC(N)=O)C(=O)N[C@@H](CC(=O)O)C(=O)N[C@@H]1C(=O)NCC(=O)N[C@@H](CCCNC(=O)CCC(=O)O)C(=O)N[C@@H](CC(=O)O)C(=O)N[C@H](C)C(=O)N[C@@H](CC(=O)O)C(=O)NCC(=O)N[C@H](CO)C(=O)N[C@@H]([C@H](C)CC(=O)O)C(=O)N[C@@H](CC(=O)c2ccccc2N)C(=O)O[C@@H]1C (stereo partly drawn) [Compound 15] | 1 (≈ 0.576 µM) | 2 (≈ 1.15 µM) | 8 (≈ 4.61 µM) | 4 (≈ 2.31 µM) | 4 (≈ 2.31 µM) | 1 (≈ 0.576 µM) | 0.25 (≈ 0.144 µM) | 4 (≈ 2.31 µM) | 4 (≈ 2.31 µM) | > 18 |  | 250 | 1.02
CCCCCCCCCCCC(=O)N[C@@H](Cc1c[nH]c2ccccc12)C(=O)N[C@@H](Cc1c[nH]c2ccccc12)C(=O)N[C@H](CC(N)=O)C(=O)N[C@@H](CC(=O)O)C(=O)N[C@@H]1C(=O)NCC(=O)N[C@@H](CCCN)C(=O)N[C@@H](CC(=O)O)C(=O)N[C@H](C)C(=O)N[C@@H](CC(=O)O)C(=O)NCC(=O)N[C@H](CO)C(=O)N[C@@H]([C@H](C)CC(=O)O)C(=O)N[C@@H](CC(=O)c2ccccc2N)C(=O)O[C@@H]1C [Compound 24] | 1 (≈ 0.545 µM) | 2 (≈ 1.09 µM) | 4 (≈ 2.18 µM) | 4 (≈ 2.18 µM) | 4 (≈ 2.18 µM) | 2 (≈ 1.09 µM) | 1 (≈ 0.545 µM) | 16 (≈ 8.72 µM) | 4 (≈ 2.18 µM) | 2.3 | > 200 | 450 | 
